What was measured:
Assay type in all cases: cell-based
[1] = system: LPS induced peripheral blood mononuclear cells (PBMCs); experiment: IL-2 gene expression relative to GAPDH in LPS induced PBMCs incubated with sesamin (RT-PCR), Example Seven; conditions: culture 4, 1.0 ug/ml of sesamin; greatest increase
Experimental: (§1) Experiments were conducted to evaluate the effect of particular phytochemical compositions provided by the present disclosure on IL-2 gene expression in specified cells found within a body of a living organism. Cells used for the experiment described in this example are LPS induced peripheral blood mononuclear cells (PBMCs). It is understood by a person having ordinary skill in the art that the PBMCs may be substituted for other immune cells found within the body. It is also understood by a person having ordinary skill in the art that other inducing substances or chemicals besides LPS, for example viral antigens, may also be used for inducing the PBMCs.
To conduct the experiments of example seven, PBMCs were isolated and prepared using methods or techniques known to a person having ordinary skill in the art. An exemplary method or techniques is the differential density gradient centrifugation technique, the steps or process steps of which is known to a person of ordinary skill in the art. In addition, LPS can be obtained from a commercial source, for example Sigma-Aldrich Co. […]
The amount or level of IL-2 gene expression in the PBMCs was measured or determined using methods or techniques known to a person having ordinary skill in the relevant art. In example three, Real-Time PCR (RT-PCR) was used for quantifying the amount of IL-2 gene expression in the PBMCs.

[2] = system: lipopolysaccharide (LPS) induced synovial fibroblast (SF) cells; experiment: IL-1 gene expression relative to GAPDH in LPS induced synovial fibroblast cells incubated with sesamin (RT-PCR), Example Five
Experimental: Experiments were conducted to evaluate the effect of particular phytochemical compositions provided by the present disclosure on IL-1 gene expression in specified cells found within a body of a living organism. The cells used for the experiment described in […] are lipopolysaccharide (LPS) induced synovial fibroblast (SF) cells. The SF cells were isolated from synovium tissue (also referred to as synovial tissue) using a standard cell isolation technique or method that is known to a person of ordinary skill in the art. In addition, LPS is obtained from a commercial source, for example Sigma-Aldrich Co. It is understood by a person having ordinary skill in the art that the SF cells may be substituted with other immune cells found within the body, for example lymphocytes, monocytes, and macrophages. […]
The amount or level of IL-1 gene expression in the SF cells was measured or determined using methods or techniques known to a person having ordinary skill in the relevant art. In example five, Real-Time PCR (RT-PCR) was used for quantifying the amount of IL-1 gene expression in the SF cells. IL-1beta or IL-1β specific primers were used during RT-PCR, thereby facilitating or effectuating the quantification of IL-1β gene expression in the SF cells. […]

[3] = system: LPS induced peripheral blood mononuclear cells (PBMCs); experiment: IL-1 released by LPS induced PBMCs incubated with sesamin (ELISA), Example Six
Experimental: as §1, with “quantity of IL-1 released by” for “IL-2 gene expression in”
To conduct the experiments of example six, PBMCs were isolated and prepared using methods or techniques known to a person having ordinary skill in the art. An exemplary method or techniques is the differential density gradient centrifugation technique, the steps or process steps of which is known to a person of ordinary skill in the art. In addition, LPS can be obtained from a commercial source, for example Sigma-Aldrich Co.
The PBMCs are cultured in 10% fetal calf serum in RPMI1640 medium. Seven cultures of PBMCs, i.e. culture 1 to culture 7, were prepared. The contents of each of cultures 1 to 7 were as follows:
(i) Culture 1: First control culture. Includes a predetermined volume of PBMCs (1×10^5 PBMCs/culture);
(ii) Culture 2: Second control culture. Includes the predetermined volume of PBMCs (1×10^5 PBMCs/culture) and LPS at a concentration of 20 ng/ml;
(iii) Culture 3: Includes the predetermined volume of the specified concentration of PBMCs, LPS at a concentration of 20 ng/ml, and a volume of phytochemical composition providing 0.1 uM of sesamin; […]
After a predetermined time period, quantity of IL-1 in each of cultures 1 to 7 was quantified using the ELISA technique (e.g., Biotrak Easy ELISA Aersham). The quantity of IL-1 detected by the ELISA technique in each of cultures 1 to 7 reflects the quantity of IL-1 released by the PBMCs of that culture.

c1cc2c(cc1[C@H]1OC[C@H]3[C@@H]1CO[C@@H]3c1ccc3c(c1)OCO3)OCO2 [sesamin]
increase in IL-2 gene expression relative GAPDH [1]: approximately 220% | IL-1 gene expression relative to GAPDH decreased ([2]; culture 4, 0.025 mM sesamin, vs control culture 3, minimal decrease): approximately 20% | IL-1 gene expression relative to GAPDH decreased ([2]; culture 9, 1.0 mM sesamin, vs control culture 2, maximal decrease): approximately 65% | decrease in quantity of IL-1 ([3]; culture 3, 0.1 uM sesamin, vs control culture 1, minimum decrease): approximately 5% | decrease in quantity of IL-1 ([3]; culture 4, 0.5 uM sesamin, vs control culture 1, minimum decrease): approximately 5% | decrease in quantity of IL-1 ([3]; culture 7, 10 uM sesamin, vs control culture 2, maximum decrease): approximately 35%
